Consider two molecules from article PMC6017873 (Molecules : A Journal of Synthetic Chemistry and Natural …, 2018).

In one test the test system is K-562 cells. Briefly: Acetylation of histone H4 and α-tubulin by Western blot, K-562. It is filed as cell-based, human. As to conditions: K-562, 5 or 50 µM. The procedure:
Total proteins were extracted using the MPER® reagent (Thermo-scientific, […], Belgium) supplemented by 1× protease inhibitor cocktail (Complete EDTA-free, Roche, Prophac, Luxembourg, Luxembourg) according to manufacturer's instructions. Histones were extracted as previously described. Western blots were carried out as previously reported. Anti-acetylated α-tubulin (sc-23950) was from Santa Cruz Biotechnology (Tebubio, Boechout, Belgium); anti-acetylated histone H4 (06-866), anti-acetylated histone […] K-562 cells were treated with […] Acetylation of histone H4 (AcH4) and α-tubulin (Ac α- tubulin) was analyzed by Western Blot. β-actin and histone H1 were used as loading controls for the analysis of total and acid extracts, respectively. Blots are representative of three independent experiments. […]

A further test deals with T1, SIRT3 (Homo sapiens, UniProt Q9NTG7).
T1 sequence (Q9NTG7 1-399): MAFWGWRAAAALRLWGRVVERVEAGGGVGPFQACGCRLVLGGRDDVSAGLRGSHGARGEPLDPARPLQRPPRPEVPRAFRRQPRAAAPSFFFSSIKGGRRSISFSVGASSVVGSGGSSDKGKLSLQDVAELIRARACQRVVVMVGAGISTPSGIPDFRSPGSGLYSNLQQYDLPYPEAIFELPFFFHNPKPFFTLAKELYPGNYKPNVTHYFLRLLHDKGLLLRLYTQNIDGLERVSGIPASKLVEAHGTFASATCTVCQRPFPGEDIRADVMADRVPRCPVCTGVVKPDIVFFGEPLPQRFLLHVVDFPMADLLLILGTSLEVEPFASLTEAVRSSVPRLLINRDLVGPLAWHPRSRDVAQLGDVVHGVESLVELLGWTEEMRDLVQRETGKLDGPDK
Also on record: method as in PMID 28475330. As to conditions: cited from earlier work.

The next test concerns the target T2, SIRT1 (Homo sapiens, UniProt Q96EB6).
T2 sequence (Q96EB6 1-747): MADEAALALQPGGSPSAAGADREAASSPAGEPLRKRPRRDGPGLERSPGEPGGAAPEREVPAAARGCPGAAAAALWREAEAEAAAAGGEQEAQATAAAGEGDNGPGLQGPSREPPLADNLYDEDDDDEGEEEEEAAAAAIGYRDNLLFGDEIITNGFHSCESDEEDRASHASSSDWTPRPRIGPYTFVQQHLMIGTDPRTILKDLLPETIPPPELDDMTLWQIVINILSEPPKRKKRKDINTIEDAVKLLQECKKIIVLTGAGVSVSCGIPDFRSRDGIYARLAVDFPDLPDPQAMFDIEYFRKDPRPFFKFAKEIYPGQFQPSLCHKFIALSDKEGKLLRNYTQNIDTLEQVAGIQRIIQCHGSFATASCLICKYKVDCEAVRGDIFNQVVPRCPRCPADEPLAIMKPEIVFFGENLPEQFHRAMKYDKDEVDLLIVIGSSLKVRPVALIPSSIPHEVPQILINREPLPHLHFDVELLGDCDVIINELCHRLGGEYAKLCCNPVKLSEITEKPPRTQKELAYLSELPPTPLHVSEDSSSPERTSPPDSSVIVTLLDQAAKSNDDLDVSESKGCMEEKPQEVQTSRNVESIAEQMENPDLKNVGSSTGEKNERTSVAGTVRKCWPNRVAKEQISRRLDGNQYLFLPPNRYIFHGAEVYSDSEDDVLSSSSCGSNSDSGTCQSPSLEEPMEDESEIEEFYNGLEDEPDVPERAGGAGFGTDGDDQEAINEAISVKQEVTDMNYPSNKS
Details: method as in PMID 28475330. The conditions noted are these: reference inhibitors, same experimental conditions; cited from earlier work.

Where [1] appears, read: reference inhibitors, same experimental conditions.

As to `Cc1ccc(C(=O)Nc2ccc(S(=O)(=O)O)c3cc(S(=O)(=O)O)cc(S(=O)(=O)O)c23)cc1NC(=O)c1cccc(NC(=O)Nc2cccc(C(=O)Nc3cc(C(=O)Nc4ccc(S(=O)(=O)O)c5cc(S(=O)(=O)O)cc(S(=O)(=O)O)c45)ccc3C)c2)c1` [Suramin, suramin], in the test with K-562 cells, the “histone H4 or α-tubulin acetylation” value is “fails to induce histone H4 or α-tubulin acetylation”. The “histone H4 or α-tubulin acetylation” value in the test with K-562 cells (listed as suramin) is given as “failed to induce any increase in histone or α-tubulin acetylation”. Besides, the “remaining SIRT3 enzymatic activity compared to the control set to 100%” value on SIRT3 (at 100 µM) was 70%. Moreover, on SIRT3 (setting [1]), the IC50 was greater than 100 µM and the “IC50 SIRT3” value is “inactive”.

Consider `N#C/C(=C\c1ccc(-c2cc(Cl)ccc2Cl)o1)C(=O)Nc1cccc2ncccc12` [AGK2], for which, at SIRT1, the half-maximal inhibitory concentration (IC50) was 98.1 ± 2.4 µM.
